{"source": "paper PMC12655551", "about": "“Design, Synthesis, and Evaluation of Pyrrole-Based Selective MAO-B Inhibitors with Additional AChE Inhibitory and Neuroprotective Properties Identified via Virtual Screening” (Pharmaceuticals, 2025)", "key": {"BChE": {"target": "T1, BChE (Equus caballus, UniProt P81908)", "T1 construct": "purchased Sigma-Aldrich, Hamburg, Germany; host or cells: equine serum", "T1 sequence (P81908 whole entry)": "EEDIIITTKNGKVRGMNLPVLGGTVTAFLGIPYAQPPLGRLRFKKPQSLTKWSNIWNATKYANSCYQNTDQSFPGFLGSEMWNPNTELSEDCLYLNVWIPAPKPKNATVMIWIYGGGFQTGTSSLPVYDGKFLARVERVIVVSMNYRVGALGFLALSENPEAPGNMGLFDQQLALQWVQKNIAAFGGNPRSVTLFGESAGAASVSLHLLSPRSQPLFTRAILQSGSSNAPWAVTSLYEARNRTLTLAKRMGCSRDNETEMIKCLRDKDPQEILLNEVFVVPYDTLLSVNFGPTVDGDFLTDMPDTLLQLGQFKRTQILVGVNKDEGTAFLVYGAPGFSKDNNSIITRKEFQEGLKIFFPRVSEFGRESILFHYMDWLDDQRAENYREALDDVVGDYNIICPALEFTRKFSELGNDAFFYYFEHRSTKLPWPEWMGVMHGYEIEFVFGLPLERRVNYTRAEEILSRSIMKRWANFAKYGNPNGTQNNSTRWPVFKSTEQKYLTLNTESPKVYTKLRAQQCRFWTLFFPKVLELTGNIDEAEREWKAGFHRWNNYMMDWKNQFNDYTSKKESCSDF", "experiment": "biochemical", "details": "for inhibition at 200 µM: read-out: Inhibition Activity 200 µM BChE", "protocol": "AChE and BChE inhibitory activity of the newly synthesized pyrrole-based compounds was measured using the microplate assay described by Ellman et al. with the modifications added by López et al.. The compounds were tested at concentrations between 0.01 and 200 μM. First, they were dissolved in phosphate buffer (PBS) (8 mM K2HPO4, 2.3 mM NaH2PO4, 0.15 M NaCl, pH 7.5), assisted by the addition of no more than 5% MeOH. Then, they were serially diluted with PBS to provide the concentration range needed. Acetylcholinesterase from Electrophorus electricus and butyrylcholinesterase from equine serum (Sigma-Aldrich, Hamburg, Germany) were used with a substrate solution of 5,5′-dithiobis(2-nitrobenzoic acid) (DTNB) with acetylthiocholine iodide (ATCI) or butyrylthiocholine iodide (BTCI), respectively (0.04 M Na2HPO4, 0.2 mM DTNB, 0.24 mM ATCI or BTCI, pH 7.5). A total of 50 μL of AChE or BChE (0.25 U/mL, in PBS) and 50 μL of the tested compound solution were added to the wells. Incubation of the plates was performed at room temperature for 30 min. Then, 100 μL of substrate solution was added to start the enzymatic reaction. […] Enzyme activity was calculated as an inhibition percentage compared to an assay including buffer instead of an inhibitor."}, "[1]": {"tested_on": "isolated rat brain microsomes", "experiment": "Pro-oxidant effect of compounds alone on isolated rat brain microsomes (MDA)", "assay_type": "cell-based", "details": "compound alone, 100 μM, vs non-treated microsomes", "protocol": "(§1) Two types of buffers were used for the isolation of the rat brain synaptosomes and mitochondria. Buffer A was 5 mM HEPES and 0.32 M Sucrose; Buffer B was 290 mM NaCl, 0.95 mM MgCl2 × 2H2O, 10 mM KCl, 2.4 mM CaCl2 × 2H2O, 2.1 mM NaH2PO4, 44 mM HEPES, 13 mM D-Glucose. For the gradient centrifugation, Percoll reagent was used. A stock solution of 90% Percoll was used to prepare 16%, 10% and 7.5% solutions. All the solutions were used as described below. Immediately after harvesting, synaptosomes, microsomes, and mitochondria were incubated with the exam compounds for 1 h. For assessing the possible neurotoxicity of the most MAOB active compounds, the sub-cellular fractions were incubated with 100 µM of them, and for evaluating their possible neuroprotective and antioxidant activities in different models of neurotoxicity, the sub-cellular fractions were incubated with 50µM of them. The protein measurement of all the sub-cellular fractions was made by the method of Lowry et al., 1951 [57].\nThe brain was homogenized in 9 vol. of 0.1 M Tris buffer containing 0.1 mM Dithiothreitol, 0.1 mM Phenylmethylsulfonyl fluoride, 0.2 mM EDTA, 1.15% KCl, and 20% (v/v) glycerol at pH 7.4. The homogenate was centrifuged twice at 17,000× g for 30 min. […]\nThe quantity of the lipid peroxidation product MDA was assessed using the method described by Deby and Goutier."}, "[2]": {"target": "T2, recombinant human MAO-A (hMAOA) (Homo sapiens, UniProt P21397)", "T2 sequence (P21397 1-527)": "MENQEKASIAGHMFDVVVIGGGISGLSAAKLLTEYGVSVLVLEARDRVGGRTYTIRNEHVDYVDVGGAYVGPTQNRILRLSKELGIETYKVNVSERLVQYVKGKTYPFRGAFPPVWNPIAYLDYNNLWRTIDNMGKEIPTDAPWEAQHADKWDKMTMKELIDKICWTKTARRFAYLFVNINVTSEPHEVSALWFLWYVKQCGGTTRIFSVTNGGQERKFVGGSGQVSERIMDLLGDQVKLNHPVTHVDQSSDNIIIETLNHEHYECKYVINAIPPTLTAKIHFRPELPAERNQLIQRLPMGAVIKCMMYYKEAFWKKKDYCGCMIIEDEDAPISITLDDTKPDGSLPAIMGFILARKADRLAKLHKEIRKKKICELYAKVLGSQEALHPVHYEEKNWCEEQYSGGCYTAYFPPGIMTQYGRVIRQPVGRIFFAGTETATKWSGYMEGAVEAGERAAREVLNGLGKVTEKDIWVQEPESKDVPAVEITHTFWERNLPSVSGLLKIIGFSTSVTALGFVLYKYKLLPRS", "experiment": "MAO-A inhibition, fluorometric Amplex UltraRed assay", "assay_type": "biochemical", "details": "for inhibition at 1 µM: read-out: Inhibition Activity 1 µM MAO-A", "protocol": "Monoamine oxidase (MAO) activity for both recombinant human MAO-A (hMAOA) and MAO-B (hMAOB) was assessed using a fluorometric assay based on the Amplex® UltraRed reagent. This method, originally reported by Bautista-Aguilera et al. and later adapted with minor changes by Kasabova-Angelova et al., detects hydrogen peroxide or peroxidase activity present in enzymes or biological samples. In this assay, Amplex® Red reacts in a 1:1 molar ratio with hydrogen peroxide in the presence of peroxidase, producing the red-fluorescent compound resorufin. Due to resorufin’s strong extinction coefficient (58,000 ± 5000 cm^−1·M^−1), measurements could be accurately taken using either fluorometric or spectrophotometric methods. […] The control conditions included the use of purified hMAOA or hMAOB in reaction buffer, enzyme solutions with hydrogen peroxide, and buffer alone. All the test compounds were initially prepared at a 1 µM final concentration. These compounds were combined with either hMAOA or hMAOB and loaded into a 96-well plate (with eight replicates per test compound), followed by incubation for 30 min at 37 °C in the dark. Subsequently, a 50 µL detection mix was added to each well. This mix contained Amplex® Red, horseradish peroxidase (HRP), and tyramine substrate, all prepared in a reaction buffer. As this enzymatic reaction proceeded continuously, the fluorescence signal was recorded every 30 min (at 0, 30, 60, 90, 120, and 150 min) to track enzymatic kinetics."}, "[3]": {"tested_on": "isolated rat brain mitochondria", "experiment": "t-BuOOH-induced oxidative stress in isolated rat brain mitochondria", "assay_type": "cell-based", "details": "compound 50 µM with t-BuOOH 75 μM", "protocol": "as §1\nThe mitochondria were prepared by multiple differential fractionation using a Percoll gradient.\nThe mitochondria were incubated with 75 μM t-BuOOH [57].\nAfter incubation of the mitochondria, 0.3 mL 0.2% TBA and 0.25 mL sulfuric acid (0.05 M) were added to stop the reaction. The tubes were maintained at 100 °C for 30 min. In the next stage, centrifugation of the tubes was carried out at 3500× g for 10 min. Assessment of the total quantity of MDA formed in each sample was measured in the supernatant at 532 nm.\nAfter incubation of mitochondria, 0.04% DTNB was mixed with the mitochondrial suspensions in 0.1 M phosphate buffer (pH 7.4). The absorbance of the yellow product was measured at 412 nm."}}, "note": "Where two headings read alike, the source gives them in different places."}
{"compound": "Cc1ccc(C)n1-c1ccc(CC(=O)O)cc1", "note": "[EM-DC-27, [4-(2,5-dimethyl-1H-pyrrol-1-yl)phenyl]acetic acid]", "values": [{"measurement": "IC50", "setting": "BChE; means ± SD of three experiments, read-out: BChE IC50", "result": "> 200", "unit": "µM"}, {"measurement": "inhibition at 200 µM", "setting": "BChE", "result": 0, "unit": "%"}, {"measurement": "increase of MDA production compared to the control", "setting": "[1]", "result": 40, "unit": "%"}, {"measurement": "inhibition at 1 µM", "setting": "[2]; 1 µM compound", "result": "99 ± 7.1", "unit": "%"}, {"measurement": "IC50", "setting": "[2]; means ± SD of three experiments, read-out: MAO-A IC50", "result": "> 100", "unit": "µM"}, {"measurement": "decrease of MDA production compared to the toxic agent", "setting": "[3]", "result": 48, "unit": "%"}, {"measurement": "preservation of GSH level compared to toxic t-BuOOH", "setting": "[3]", "result": 30, "unit": "%"}]}
{"compound": "Cc1ccc(C)n1C(Cc1cnc[nH]1)C(=O)O", "note": "(centres unmarked) [EM-DC-19, 2-(2,5-dimethyl-1H-pyrrol-1-yl)-3-(2H-imidazol-4-yl)propanoic acid]", "values": [{"measurement": "IC50", "setting": "BChE; BChE IC50, means ± SD of three experiments", "result": "> 200", "unit": "µM"}, {"measurement": "inhibition at 200 µM", "setting": "BChE", "result": "18.03 ± 0.17", "unit": "%"}, {"measurement": "increase of MDA production compared to the control", "setting": "[1]", "result": 20, "unit": "%"}, {"measurement": "IC50", "setting": "[2]", "result": "> 100", "unit": "µM"}, {"measurement": "inhibition at 1 µM", "setting": "[2]", "result": "99 ± 6.1", "unit": "%"}, {"measurement": "decrease of MDA production compared to the toxic agent", "setting": "[3]", "result": 52, "unit": "%"}, {"measurement": "preservation of GSH level compared to toxic t-BuOOH", "setting": "[3]", "result": 30, "unit": "%"}]}
